In patent US20250276007A1, “CARBAMOYLPHENYLBORONIC ACID-CONTAINING ACRYLIC MONOMERS AND USES THEREOF” (Alcon Inc., priority 2024, published 2025):
Where two headings read alike, the source gives them in different places.

Experiment: pKa of boronic acid monomer
Type: physicochemical
Settings: monomer forming the repeating units of the copolymer

## C=CC(=O)Nc1cccc(B(O)O)c1 [APBA, 3-(acrylamido)phenylboronic acid]
read-out: pKa
  pKa: ~8.1

## C=CC(=O)NCCNC(=O)c1ccc(B(O)O)cc1Cl [CPBA]
  pKa: about 7.2
